Here are results for eleven molecules from ChEMBL document CHEMBL1201862, “PubChem BioAssay data set” (2004).

As a reminder, the GI50 is the concentration at which growth is held to half of that of the control.

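Results reflect a 48-hour exposure of cells in 96-well plates to compound at five concentrations. GI50: concentration for 50% inhibition of growth.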 The source made the active and inactive calls. Rule as the data show it: active = GI50 up to about 1.1 µM and inactive = higher.

Among the test systems are UACC-257; HCC 2998; HOP-62; MOLT-4; MDA-MB-231; NCI-H460; NCI/ADR-RES; 786-0; MCF7; TK-10; A549; ACHN; OVCAR-5; MDA-MB-435; K562; SK-MEL-5; SK-MEL-28; CAKI-1; HL-60; SR.
Experiment in all cases: DTP human tumour cell line panel, 48 h

Consider `OC1[C@@H]2[C@@H](O)[C@H](O)[C@@H](O)N2C[C@@H]1O` (stereo not given in full), for which the GI50 in the assay with UACC-257, in the assay on HCC 2998, in the assay on HOP-62, with MOLT-4, in the assay with MDA-MB-231 and with NCI-H460 was > 100 µM (inactive) in each case. Also, the GI50 in the assay with NCI/ADR-RES, with 786-0, with MCF7, with TK-10, in the assay on A549 and in the assay with ACHN was > 100 µM (inactive) throughout. In addition, the GI50 in the assay on OVCAR-5, with MDA-MB-435, with K562, with SK-MEL-5, in the assay with SK-MEL-28 and in the assay with CAKI-1 was > 100 µM (inactive) throughout.
As for `CC1CC[C@@H](C(C)C)[C@H](Oc2nnc(C3OC(CO)C(O)C3O)o2)C1` (stereo not given in full), the GI50 in the assay on UACC-257, in the assay on HCC 2998, in the assay on HOP-62, in the assay with MOLT-4, with MDA-MB-231 and in the assay with HL-60 was > 100 µM (inactive) in each case. The GI50 with NCI-H460, in the assay with NCI/ADR-RES, with 786-0, in the assay with MCF7, in the assay with TK-10 and in the assay on A549 was > 100 µM (inactive) each time. Moreover, the GI50 with ACHN, in the assay with OVCAR-5, in the assay with MDA-MB-435, in the assay with K562, in the assay with SK-MEL-5 and in the assay on CAKI-1 was > 100 µM (inactive) each time.
For `O=c1c2nc3ccccc3c(=O)n2ncn1-c1ccccc1Cl`, the GI50 in the assay on UACC-257, in the assay on HCC 2998, with HOP-62, in the assay on MDA-MB-231, with HL-60 and in the assay with NCI-H460 was > 100 µM (inactive) throughout. Besides, the GI50 with 786-0, in the assay on MCF7, with TK-10, with A549, with ACHN and with OVCAR-5 was > 100 µM (inactive) in each case. Besides, the GI50 in the assay on SR, with MDA-MB-435, with K562, in the assay with SK-MEL-5, with SK-MEL-28 and with CAKI-1 was > 100 µM (inactive) each time.
`CN(C)c1ccc(/C=C2\C[N+](C)(C)C/C(=C\c3ccc(N(C)C)cc3)C2=O)cc1`: the GI50 is 12.1 µM (inactive) in the assay on UACC-257; 8.18 µM (inactive) in the assay with HCC 2998; 42.8 µM (inactive) in the assay on HOP-62; 13.6 µM (inactive) in the assay with MOLT-4; 17.9 µM (inactive) in the assay with MDA-MB-231; 2.47 µM (inactive) in the assay with HL-60. The GI50 is 13.6 µM (inactive) with NCI-H460; 30.7 µM (inactive) in the assay on 786-0; 5.4 µM (inactive) with MCF7; 78.7 µM (inactive) in the assay on TK-10; 20.7 µM (inactive) in the assay with A549; 70.5 µM (inactive) in the assay with ACHN. The GI50 in the assay on OVCAR-5 was 38.9 µM (inactive); with SR, 8.09 µM (inactive); in the assay with MDA-MB-435 it was 12.1 µM (inactive); with K562, 7.98 µM (inactive); in the assay on SK-MEL-5, 11.6 µM (inactive); in the assay on SK-MEL-28, 15.3 µM (inactive). Also, the GI50 in the assay with CAKI-1 was > 100 µM (inactive).
For `N#Cc1nc2cc(Cl)ccc2nc1N1CCN(c2ccc([N+](=O)[O-])cc2)CC1`, the GI50 in the assay on UACC-257 is > 100 µM (inactive); in the assay with HCC 2998, 18.9 µM (inactive); with HOP-62, > 100 µM (inactive); in the assay on MOLT-4 it was > 100 µM (inactive); with MDA-MB-231 it was > 100 µM (inactive); in the assay with NCI-H460 it was > 100 µM (inactive). Moreover, the GI50 in the assay with NCI/ADR-RES, in the assay on 786-0, in the assay with MCF7, in the assay with TK-10, with A549 and in the assay on ACHN was > 100 µM (inactive) in each case. For the same molecule, the GI50 in the assay on OVCAR-5, with MDA-MB-435, with K562, in the assay on SK-MEL-5, in the assay on SK-MEL-28 and in the assay with CAKI-1 was > 100 µM (inactive) in each case.
Consider `Cc1ccc(Cc2nn(C)c(=O)n2N)cc1`, for which the GI50 in the assay on UACC-257, with HCC 2998, in the assay with MDA-MB-231, in the assay on NCI-H460, in the assay with NCI/ADR-RES and in the assay with 786-0 was > 100 µM (inactive) each time. The GI50 in the assay on MCF7, in the assay with TK-10, in the assay on A549, in the assay with ACHN, in the assay with OVCAR-5 and in the assay on MDA-MB-435 was > 100 µM (inactive) throughout. The GI50 in the assay on K562, with SK-MEL-5, in the assay with SK-MEL-28 and with CAKI-1 was > 100 µM (inactive) in each case.
In the case of `COc1ccc(Oc2nc3ccc(C(F)(F)F)cc3nc2-c2ccccc2)cc1`, the GI50 is > 100 µM (inactive) in the assay on UACC-257; 25.3 µM (inactive) with HCC 2998; > 100 µM (inactive) in the assay with HOP-62; 62.4 µM (inactive) with MOLT-4; > 100 µM (inactive) in the assay with MDA-MB-231; 42 µM (inactive) in the assay with HL-60. In addition, the GI50 is > 100 µM (inactive) in the assay on NCI-H460; > 100 µM (inactive) in the assay on 786-0; 65.5 µM (inactive) in the assay with MCF7; > 100 µM (inactive) with TK-10; > 100 µM (inactive) in the assay on ACHN; > 100 µM (inactive) in the assay with OVCAR-5. The GI50 in the assay on SR is 13.1 µM (inactive); in the assay on MDA-MB-435, > 100 µM (inactive); in the assay on K562 it was 87.9 µM (inactive); in the assay with SK-MEL-5 it was > 100 µM (inactive); in the assay on SK-MEL-28 it was > 100 µM (inactive); with CAKI-1, > 100 µM (inactive).
As for `Nc1ccc(-c2nc3ccc(Cc4ccc5nc(-c6ccc(N)cc6)oc5c4)cc3o2)cc1`, the GI50 in the assay on UACC-257 was > 100 µM (inactive); in the assay on HCC 2998 it was > 100 µM (inactive); in the assay with MOLT-4, 67 µM (inactive); in the assay on MDA-MB-231 it was > 100 µM (inactive); in the assay on NCI-H460, > 100 µM (inactive); with NCI/ADR-RES, > 100 µM (inactive). Moreover, the GI50 with 786-0, in the assay with MCF7, in the assay on TK-10, in the assay on A549, in the assay with ACHN and in the assay with OVCAR-5 was > 100 µM (inactive) throughout. Moreover, the GI50 with SR was 12.7 µM (inactive); in the assay with MDA-MB-435 it was 82.4 µM (inactive); with K562, 44.5 µM (inactive); in the assay with SK-MEL-28 it was > 100 µM (inactive); with CAKI-1, > 100 µM (inactive).
Consider `C#CC(C)(C)OC(=O)C(=[N+]=[N-])C(C)=O`, for which the GI50 with UACC-257, in the assay with HCC 2998, in the assay on HOP-62, in the assay with MOLT-4, in the assay with MDA-MB-231 and in the assay with HL-60 was > 10 µM (inactive) in each case. The GI50 with NCI-H460, in the assay on 786-0, in the assay with MCF7, in the assay with TK-10, in the assay with A549 and in the assay on ACHN was > 10 µM (inactive) each time. The GI50 in the assay on OVCAR-5, with SR, with MDA-MB-435, in the assay with K562, in the assay with SK-MEL-5 and in the assay with SK-MEL-28 was > 10 µM (inactive) each time.
On to `Nc1ccc(-c2nc3ccc(F)cc3s2)cc1Cl`, for which the GI50 in the assay on UACC-257 was > 100 µM (inactive); in the assay with HCC 2998, 0.0869 µM (active); in the assay with HOP-62 it was 26.9 µM (inactive); in the assay on MOLT-4, > 20.4 µM (inactive); in the assay with MDA-MB-231 it was > 55.3 µM (inactive); with NCI/ADR-RES it was > 100 µM (inactive). The GI50 was > 61.1 µM (inactive) with 786-0; < 0.01 µM (active) in the assay on MCF7; < 0.01 µM (active) in the assay on TK-10; > 100 µM (inactive) with A549; > 100 µM (inactive) in the assay with ACHN; > 100 µM (inactive) in the assay on SR. Further, the GI50 is > 100 µM (inactive) with MDA-MB-435; > 100 µM (inactive) in the assay on K562; > 100 µM (inactive) with SK-MEL-5; > 100 µM (inactive) in the assay on SK-MEL-28; > 78.5 µM (inactive) in the assay on CAKI-1.
Turning to `Cc1occc1/C(S)=N\c1ccc(Cl)c(C(=O)OCC2CC2)c1`, the GI50 is 22.3 µM (inactive) in the assay with UACC-257; 26.7 µM (inactive) in the assay on HCC 2998; 14.9 µM (inactive) in the assay with MOLT-4; 37.8 µM (inactive) in the assay with MDA-MB-231; 28.4 µM (inactive) with HL-60; 57.9 µM (inactive) with NCI-H460. The GI50 in the assay with NCI/ADR-RES was 33.3 µM (inactive); in the assay on 786-0, 44.9 µM (inactive); in the assay on MCF7, 38.5 µM (inactive); in the assay on TK-10, 34.8 µM (inactive); in the assay on A549, > 100 µM (inactive); in the assay on ACHN it was 34.5 µM (inactive). Further, the GI50 is > 100 µM (inactive) with OVCAR-5; 75.3 µM (inactive) with MDA-MB-435; 18.8 µM (inactive) in the assay on K562; 41.2 µM (inactive) in the assay with SK-MEL-5; 72.6 µM (inactive) in the assay on SK-MEL-28; 5.81 µM (inactive) with CAKI-1.
